# Measured values taken from ChEMBL document CHEMBL3525956, “Species independence in brain tissue binding using brain homogenates” (Drug Metab Dispos, 2011).
# Legend:
# [1] = Fraction unbound in Wistar Han rat brain homogenates at 1 uM after 6 hrs by equilibrium dialysis method; conditions: brain homogenate
# [2] = Fraction unbound in Sprague-Dawley rat brain homogenates at 1 uM after 6 hrs by equilibrium dialysis method; conditions: brain homogenate
# [3] = Fraction unbound in CD-1 mouse brain homogenates at 1 uM after 6 hrs by equilibrium dialysis method; conditions: brain homogenate
# [4] = Fraction unbound in Hartley guinea pig brain homogenates at 1 uM after 6 hrs by equilibrium dialysis method; conditions: brain homogenate
# [5] = Fraction unbound in Beagle dog brain homogenates at 1 uM after 6 hrs by equilibrium dialysis method; conditions: brain homogenate
# [6] = Fraction unbound in cynomolgus monkey brain homogenates at 1 uM after 6 hrs by equilibrium dialysis method; conditions: brain homogenate
# [7] = Fraction unbound in human occipital cortex at 1 uM after 6 hrs by equilibrium dialysis method
SMILES,"fraction unbound at 6 h, 1 µM [1]","fraction unbound at 6 h, 1 µM [2]","fraction unbound at 6 h, 1 µM [3]","fraction unbound at 6 h, 1 µM [4]","fraction unbound at 6 h, 1 µM [5]","fraction unbound at 6 h, 1 µM [6]","fraction unbound at 6 h, 1 µM [7]"
O=C1CCc2ccc(OCCCCN3CCN(c4cccc(Cl)c4Cl)CC3)cc2N1 [ARIPIPRAZOLE],0.001,0.001,0.001,0.001,0.001,0.001,0.002
CN(C)CCCN1c2ccccc2Sc2ccc(Cl)cc21 [CHLORPROMAZINE],0.003,0.002,0.003,0.003,0.003,0.004,0.003
CC(NC(C)(C)C)C(=O)c1cccc(Cl)c1 (centres undefined) [BUPROPION],0.132,0.171,0.133,0.177,0.213,0.167,0.195
COCCOC(=O)C1=C(C)NC(C)=C(C(=O)OC(C)C)C1c1cccc([N+](=O)[O-])c1 (centres undefined) [NIMODIPINE],0.01,0.009,0.007,0.007,0.007,0.009,0.008
CCCCN1CCCCC1C(=O)Nc1c(C)cccc1C (centres undefined) [BUPIVACAINE],0.15,0.098,0.274,0.204,0.211,0.195,0.232
O=C(O[C@H]1CN2CCC1CC2)N1CCc2ccccc2[C@@H]1c1ccccc1 [SOLIFENACIN],0.019,0.015,0.016,0.014,0.018,0.016,0.017
CO[C@H]1/C=C/O[C@@]2(C)Oc3c(C)c(O)c4c(O)c(c(/C=N/N5CCN(C)CC5)c(O)c4c3C2=O)NC(=O)/C(C)=C\C=C\[C@H](C)[C@H](O)[C@@H](C)[C@@H](O)[C@@H](C)[C@H](OC(C)=O)[C@@H]1C [RIFAMPIN],0.121,0.068,0.121,0.118,0.259,0.162,0.119
CN(C)CCCN1c2ccccc2CCc2ccc(Cl)cc21 [CLOMIPRAMINE],0.004,0.003,0.004,0.003,0.004,0.006,0.004
O=c1n(CCCN2CCN(c3cccc(Cl)c3)CC2)nc2ccccn12 [TRAZODONE],0.085,0.062,0.086,0.059,0.066,0.082,0.077
CC(C)(C)NCC(O)COc1ccc(NC(=O)NC2CCCCC2)cc1 (centres undefined) [TALINOLOL],0.141,0.096,0.117,0.117,0.247,0.176,0.137
CNCCCN1c2ccccc2CCc2ccccc21 [DESIPRAMINE],0.013,0.008,0.011,0.007,0.017,0.012,0.011
Fc1ccc([C@@H]2CCNC[C@H]2COc2ccc3c(c2)OCO3)cc1 [PAROXETINE],0.004,0.006,0.004,0.003,0.004,0.006,0.005
CNCCC=C1c2ccccc2CCc2ccccc21 [NORTRIPTYLINE],0.007,0.005,0.008,0.006,0.007,0.009,0.006
O=C1NC(=O)C(c2ccccc2)(c2ccccc2)N1 [PHENYTOIN],0.1,0.134,0.088,0.082,0.259,0.114,0.095
CCCc1nc2c(C)cc(-c3nc4ccccc4n3C)cc2n1Cc1ccc(-c2ccccc2C(=O)O)cc1,0.013,0.017,0.01,0.008,0.011,0.013,0.014
COc1ccc2c(c1)c(CC(=O)O)c(C)n2C(=O)c1ccc(Cl)cc1 [INDOMETHACIN],0.044,0.028,0.052,0.044,0.035,0.053,0.055

SMILES,"fraction unbound at 6 h, 1 µM [1]","fraction unbound at 6 h, 1 µM [2]","fraction unbound at 6 h, 1 µM [3]","fraction unbound at 6 h, 1 µM [4]","fraction unbound at 6 h, 1 µM [5]","fraction unbound at 6 h, 1 µM [6]","fraction unbound at 6 h, 1 µM [7]"
CN1[C@@H]2CC[C@H]1C[C@@H](OC(=O)c1c[nH]c3ccccc13)C2 [TROPISETRON],0.056,0.045,0.059,0.048,0.047,0.064,0.053
NC(=O)N1c2ccccc2C=Cc2ccccc21 [CARBAMAZEPINE],0.171,0.124,0.173,0.128,0.159,0.185,0.171
Cc1ccc(C(=O)c2cc(O)c(O)c([N+](=O)[O-])c2)cc1 [TOLCAPONE],0.001,0.007,0.002,0.002,0.05,0.003,0.003
CCCCCCCN(CC)CCCC(O)c1ccc(NS(C)(=O)=O)cc1 (centres undefined) [IBUTILIDE],0.104,0.081,0.114,0.075,0.119,0.078,0.091
CN(C)CCCC1(c2ccc(F)cc2)OCc2cc(C#N)ccc21 (centres undefined) [CITALOPRAM],0.05,0.03,0.06,0.038,0.057,0.061,0.047
CCN(CC)CCNC(=O)c1cc(Cl)c(N)cc1OC [METOCLOPRAMIDE],0.224,0.145,0.23,0.237,0.294,0.413,0.295
CCN(C)C(=O)Oc1cccc([C@H](C)N(C)C)c1 [RIVASTIGMINE],0.338,0.241,0.341,0.389,0.487,0.316,0.345
CC(=O)CC(c1ccccc1)c1c(O)c2ccccc2oc1=O (centres undefined) [WARFARIN],0.183,0.199,0.094,0.326,0.384,0.318,0.295
Cc1c(C(=O)NN2CCCCC2)nn(-c2ccc(Cl)cc2Cl)c1-c1ccc(Cl)cc1 [RIMONABANT],0.0004,0.0006,0.0004,0.0004,0.0005,0.0006,0.0005
CN1Cc2c(N)cccc2C(c2ccccc2)C1 (centres undefined) [NOMIFENSINE],0.066,0.064,0.078,0.068,0.072,0.068,0.071
CC(CC(c1ccccc1)c1ccccc1)NC(C)(C)C (centres undefined) [TERODILINE],0.025,0.02,0.049,0.059,0.148,0.071,0.028
CN1CCCC(n2nc(Cc3ccc(Cl)cc3)c3ccccc3c2=O)CC1 (centres undefined) [AZELASTINE],0.012,0.009,0.012,0.009,0.011,0.014,
NC12CC3CC(CC(C3)C1)C2 [AMANTADINE],0.213,0.147,0.181,0.178,0.218,0.1,0.171
CCCNC(=O)NS(=O)(=O)c1ccc(Cl)cc1 [CHLORPROPAMIDE],0.223,0.668,0.441,0.65,,0.699,0.583
CN[C@H]1CC[C@@H](c2ccc(Cl)c(Cl)c2)c2ccccc21 [SERTRALINE],,,,,,,0.001
